In patent US9656945B2, “3-acyl-ingenols II” (LEO LABORATORIES LIMITED, priority 2010, dated 2017):
pEC50: −log10 of the molar value.

How the values were obtained:
Format in all cases: cell-based
[1] = system: PMN's (polymorphonuclear leukocytes); experiment: Neutrophil oxidative burst assay; conditions: Leukocyte, 40 min, read-out: Neutrophil oxidative burst Rel EC50 range
[2] = system: HeLa cells (ATCC CCL-002); experiment: Necrosis assay; conditions: Homo sapiens, 0.5 h, read-out: HeLa necrosis EC50 range
Description: HeLa cells (ATCC CCL-002) were grown in minimal essential medium (Invitrogen catalog no. 42360) containing 10% fetal bovine serum, 100 IU/ml penicillin and 100 μg/ml streptomycin. 4,000-6,000 cells were seeded into 96-well black ViewPlates-plates, clear bottom, (Perkin Elmer) in 100 μl medium and incubated overnight. Compounds were dissolved and pre-diluted in DMSO in 96-well polypropylene plates (Greiner) in a concentration range of 15 μM to 600 μM. At the time of the experiment cell plates were placed on heating blocks at 37° C., medium was removed and 40 μl fresh, pre-warmed medium was added per well. Cells were incubated for 15 min before addition of compounds. In parallel, 3 μl of compounds were diluted with 197 μl growth medium on a Tecan freedom-EVO pipetting station using 250 μl/s pipetting speed, in order to ensure effective mixing of the highly concentrated compound solutions with the aqueous phase. These pre-dilution plates were then equilibrated on heating blocks at 37° C. for 10 min. 80 μl pre-diluted compound were transferred manually to the corresponding wells containing HeLa cells yielding compound concentrations of 10 μM to 400 μM. Control conditions were 1% DMSO in growth medium (100% viability) and 400 μM ingenol mebutate in growth medium (0% viability). Plates were incubated on the heating blocks at 37° C. for 30 min. At the end of the incubation 10 μl PrestoBlue reagent (Invitrogen) were added to each well, plates were sealed with black seal, followed by incubation at 37° C. for 10 min with gentle shaking (150 rpm). Subsequently, plates were placed at room temperature for 20-30 min. Plates were read immediately after on an Envision Fluorescence reader (Perkin Elmer) with excitation at 535 nm and emission at 630 nm. Test compound titration curves were fitted to a four-parameter sigmoidal curve after normalizing the effect of the test compound to the effect of the positive control (4 10^−4 M PEP0005/ingenol mebutate). AbsEC50 denotes the concentration of test compound producing 50% effect.

[3] = system: Primary human epidermal keratinocytes, HeKa; experiment: HeKa cytokine release (IL-8) assay; conditions: 6 h, read-out: HeKa cytokine release (IL-8) Rel EC50 range

| Structure (SMILES) | pEC50 [1] | pEC50 [2] | pEC50 [3] |
| --- | --- | --- | --- |
| CC1=C[C@]23C(=O)[C@@H](C=C(CO)[C@@H](O)[C@]2(O)[C@H]1OC(=O)C12C[C@@H]4CC1C[C@@H](C4)C2)[C@H]1[C@@H](C[C@H]3C)C1(C)C [Compound 307, Ingenol 3-(noradamantane-3-carboxylate)] | > 7.70 | 3.46 to 3.82 | > 7.70 |
| COc1ccc(C(=O)O[C@H]2C(C)=C[C@]34C(=O)[C@@H](C=C(CO)[C@@H](O)[C@]23O)[C@H]2[C@@H](C[C@H]4C)C2(C)C)cc1 [Compound 313, Ingenol 3-(4-methoxy-benzoate)] | > 7.70 | > 3.82 | > 7.70 |
| CC1=C[C@]23C(=O)[C@@H](C=C(CO)[C@@H](O)[C@]2(O)[C@H]1OC(=O)C1CCCCC1)[C@H]1[C@@H](C[C@H]3C)C1(C)C [Compound 302, Ingenol 3-(cyclohexanecarboxylate)] | > 7.70 | 3.46 to 3.82 | 7.00 to 7.70 |
